Results published in US20070274907A1 (priority 2004, published 2007).

Legend:
[1] = Mitomycin binding kinetics to magnetically targetable carrier particle; format: physicochemical; details: for initial mitomycin remaining in the binding supernatant: 5 minutes, 25 mg carrier, 0.755 mg/mL mitomycin
Procedure: Mitomycin binding kinetics was measured at room temperature, and 40° C. […] The mixture was incubated at room temperature and at 40° C. for various time periods up to 60 minutes. The concentration of mitomycin remaining in the binding supernatant was obtained by filtering the sample at a predefined time point and then analyzing by HPLC to determine percentage bound.

swine = assay: 28 day toxicity study, pulmonary artery delivery with magnetic targeting
Procedure: Each animal received a single dose of either control or test article at fixed concentrations by pulmonary artery infusion. […] The vehicle control group received 16 mL of vehicle.
A test article was administered as a single infusion to Groups 1 and 2 and as two infusions in all other groups. A 15 minute magnetic retention period separated the two infusions in Groups 3 and 4. The infusion rate was maintained at a flow rate of 2 mL/min. At the end of the 15 minute magnetic retention period, an angiogram was performed to verify arterial patency in the selected lung lobe. Assessment of toxicity following treatment included laboratory tests in which blood samples were collected for evaluation of serum chemistry, hematology and coagulation parameters prior to dosing (Day 0) and post-dosing on Days 1, 3, 7, 14, 21 and 28.

[2] = tested on: squamous cell carcinoma of the lung; details: 10 mg MMC intra-arterially, after 28 to 48 days, 9 patients; cited from earlier work
bronchogenic carcinoma = details: 39 patients; cited from earlier work
[3] = tested on: squamous cell carcinoma or adenocarcinoma; details: full series of 4 treatments, 10 mg MMC each, bronchial artery; cited from earlier work
[4] = Toxicokinetic analysis of plasma MMC after pulmonary artery infusion

What does the source list for `CO[C@@]12[C@H](COC(N)=O)C3=C(C(=O)C(C)=C(N)C3=O)N1C[C@@H]1N[C@@H]12` [MMC, Mitomycin C]?
initial mitomycin remaining in the binding supernatant ([1]; 40° C): 3%; initial mitomycin remaining in the binding supernatant ([1]; room temperature): 2%; time to adsorption equilibrium ([1]; both room temperature and 40° C): less than 5 minutes; stability of mitomycin solution during incubation ([1]; room temperature and 40° C, up to 60 minutes): stable at both temperatures; stomach ulceration (swine; 28 days post-dosing, not dose-related): stomach ulceration was seen in some animals; clinical signs (swine; MMC alone group, 4 mg MMC): transient diarrhea in two animals; embolization (post-treatment angiography) (swine; MMC control, 4 mg MMC): no embolization; complete remission of the tumor, patients [2]: 2 patients; partial remission, patients [2]: 2 patients; neurologic complications (bronchogenic carcinoma): No neurologic complications occurred; side effects (bronchogenic carcinoma): insignificant; patients with a 20% to 50% decrease of the tumor area [3]: 3 patients; patients with a 50% decrease of the tumor area [3]: 5 patients; Cmax ([4]; Yorkshire, pig, in vivo, 4 mg): 178 ± 27.1 ng/mL; Vd ([4]; Yorkshire, pig, in vivo, 4 mg): 47.3 ± 13.2 L; clearance ([4]; Yorkshire, pig, in vivo, 4 mg): 618 ± 54 mL/min; half-life ([4]; Yorkshire, pig, in vivo, 4 mg, β or λ t1/2, swine, 4 mg MMC): 1.12 ± 0.278 h; half-life ([4]; Yorkshire, swine, in vivo, distribution half-life, swine, summary over dose groups): ~0.133 h; half-life ([4]; Yorkshire, swine, in vivo, elimination half-life, swine, summary over dose groups): ~1.08 h; AUC ([4]; swine, 4 mg MMC, pulmonary artery infusion, plasma MMC): 6507 ± 568 (ng/ml) × min
